How the values were obtained:
D(1A) dopamine receptor = D(1A) dopamine receptor (Homo sapiens, UniProt P21728); format: functional, cell-based
[1] = target: T1, Muscarinic acetylcholine receptor M4 (Homo sapiens, UniProt P08173)
T1 sequence (P08173 whole entry): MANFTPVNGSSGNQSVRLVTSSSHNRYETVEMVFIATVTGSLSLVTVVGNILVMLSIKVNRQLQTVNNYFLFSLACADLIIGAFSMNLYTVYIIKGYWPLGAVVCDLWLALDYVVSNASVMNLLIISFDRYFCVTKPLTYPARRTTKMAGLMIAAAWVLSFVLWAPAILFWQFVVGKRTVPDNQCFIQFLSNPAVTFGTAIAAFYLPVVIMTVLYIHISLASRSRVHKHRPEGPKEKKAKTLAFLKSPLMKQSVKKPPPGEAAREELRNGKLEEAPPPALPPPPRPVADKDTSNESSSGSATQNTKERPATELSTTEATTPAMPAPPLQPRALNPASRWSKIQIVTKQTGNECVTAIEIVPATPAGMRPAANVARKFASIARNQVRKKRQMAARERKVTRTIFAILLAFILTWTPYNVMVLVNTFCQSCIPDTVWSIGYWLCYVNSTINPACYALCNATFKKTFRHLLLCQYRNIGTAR

[2] = target: Rod cGMP-specific 3',5'-cyclic phosphodiesterase subunit alpha (Homo sapiens, UniProt P16499); format: functional
Sequence of Rod cGMP-specific 3',5'-cyclic phosphodiesterase subunit alpha (P16499 whole entry): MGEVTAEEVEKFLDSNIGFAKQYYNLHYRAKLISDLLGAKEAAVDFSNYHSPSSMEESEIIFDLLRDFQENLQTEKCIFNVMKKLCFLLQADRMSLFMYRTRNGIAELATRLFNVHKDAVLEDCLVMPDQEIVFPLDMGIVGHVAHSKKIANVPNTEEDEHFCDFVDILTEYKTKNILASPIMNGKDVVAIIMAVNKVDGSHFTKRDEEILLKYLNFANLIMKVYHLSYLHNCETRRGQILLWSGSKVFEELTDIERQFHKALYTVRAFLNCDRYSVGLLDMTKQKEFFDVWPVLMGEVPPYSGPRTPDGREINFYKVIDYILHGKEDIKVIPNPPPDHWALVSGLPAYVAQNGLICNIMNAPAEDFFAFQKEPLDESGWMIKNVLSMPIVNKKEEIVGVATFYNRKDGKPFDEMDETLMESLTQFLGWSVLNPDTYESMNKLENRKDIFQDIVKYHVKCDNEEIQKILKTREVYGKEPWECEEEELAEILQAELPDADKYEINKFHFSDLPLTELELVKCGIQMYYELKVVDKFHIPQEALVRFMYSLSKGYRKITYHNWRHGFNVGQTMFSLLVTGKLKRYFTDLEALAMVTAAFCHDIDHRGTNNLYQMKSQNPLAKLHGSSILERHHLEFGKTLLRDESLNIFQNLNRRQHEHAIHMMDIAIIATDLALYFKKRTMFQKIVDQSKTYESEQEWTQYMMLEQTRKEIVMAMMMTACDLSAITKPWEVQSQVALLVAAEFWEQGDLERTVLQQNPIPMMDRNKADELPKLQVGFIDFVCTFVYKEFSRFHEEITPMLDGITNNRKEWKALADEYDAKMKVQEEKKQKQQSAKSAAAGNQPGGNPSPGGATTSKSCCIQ

[3] = target: Synaptic vesicular amine transporter (Rattus norvegicus, UniProt Q01827); format: functional
Sequence of Synaptic vesicular amine transporter (Q01827 whole entry): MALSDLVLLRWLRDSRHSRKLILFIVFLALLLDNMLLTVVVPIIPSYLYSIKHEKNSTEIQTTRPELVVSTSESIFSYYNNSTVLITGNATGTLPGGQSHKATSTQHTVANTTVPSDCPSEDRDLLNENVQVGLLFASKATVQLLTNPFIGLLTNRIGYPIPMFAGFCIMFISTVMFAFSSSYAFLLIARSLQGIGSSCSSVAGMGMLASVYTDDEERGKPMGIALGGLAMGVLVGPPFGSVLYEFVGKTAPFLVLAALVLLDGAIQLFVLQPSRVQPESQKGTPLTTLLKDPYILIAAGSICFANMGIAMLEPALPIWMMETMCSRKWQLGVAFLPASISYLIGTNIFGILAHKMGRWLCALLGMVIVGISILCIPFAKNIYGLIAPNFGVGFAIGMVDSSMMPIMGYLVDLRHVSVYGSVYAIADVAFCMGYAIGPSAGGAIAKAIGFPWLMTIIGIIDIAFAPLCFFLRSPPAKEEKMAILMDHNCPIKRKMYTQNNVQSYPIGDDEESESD

[4] = target: T2, Muscarinic acetylcholine receptor M2 (Homo sapiens, UniProt P08172)
T2 sequence (P08172 whole entry): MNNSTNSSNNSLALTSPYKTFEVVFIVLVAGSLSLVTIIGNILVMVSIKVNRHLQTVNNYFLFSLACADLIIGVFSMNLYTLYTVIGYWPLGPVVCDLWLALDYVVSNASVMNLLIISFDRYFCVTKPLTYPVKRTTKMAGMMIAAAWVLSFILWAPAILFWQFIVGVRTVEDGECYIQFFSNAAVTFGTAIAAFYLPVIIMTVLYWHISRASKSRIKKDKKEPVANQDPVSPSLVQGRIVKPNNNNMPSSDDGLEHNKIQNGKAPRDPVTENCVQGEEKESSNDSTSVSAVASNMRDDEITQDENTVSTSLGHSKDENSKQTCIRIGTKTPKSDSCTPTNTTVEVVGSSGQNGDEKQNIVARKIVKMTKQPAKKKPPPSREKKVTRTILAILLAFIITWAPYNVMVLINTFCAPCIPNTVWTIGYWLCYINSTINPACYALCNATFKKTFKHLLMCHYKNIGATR

Thromboxane A2 receptor = target: T3, Thromboxane A2 receptor (Homo sapiens, UniProt P21731); format: functional
T3 sequence (P21731 whole entry): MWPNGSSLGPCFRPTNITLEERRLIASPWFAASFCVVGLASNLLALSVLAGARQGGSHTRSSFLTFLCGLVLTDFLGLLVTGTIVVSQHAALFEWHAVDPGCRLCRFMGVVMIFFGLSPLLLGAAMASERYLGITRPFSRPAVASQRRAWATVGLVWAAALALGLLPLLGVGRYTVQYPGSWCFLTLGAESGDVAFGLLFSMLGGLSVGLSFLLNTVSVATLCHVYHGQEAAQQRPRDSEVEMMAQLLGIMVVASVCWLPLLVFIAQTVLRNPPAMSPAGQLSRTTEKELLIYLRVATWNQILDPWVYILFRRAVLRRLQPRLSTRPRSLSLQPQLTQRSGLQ

[5] = target: Vascular endothelial growth factor receptor 2 (Homo sapiens, UniProt P35968); format: functional
[6] = target: T4, Peroxisome proliferator-activated receptor gamma (Homo sapiens, UniProt P37231); format: functional
T4 sequence (P37231 whole entry): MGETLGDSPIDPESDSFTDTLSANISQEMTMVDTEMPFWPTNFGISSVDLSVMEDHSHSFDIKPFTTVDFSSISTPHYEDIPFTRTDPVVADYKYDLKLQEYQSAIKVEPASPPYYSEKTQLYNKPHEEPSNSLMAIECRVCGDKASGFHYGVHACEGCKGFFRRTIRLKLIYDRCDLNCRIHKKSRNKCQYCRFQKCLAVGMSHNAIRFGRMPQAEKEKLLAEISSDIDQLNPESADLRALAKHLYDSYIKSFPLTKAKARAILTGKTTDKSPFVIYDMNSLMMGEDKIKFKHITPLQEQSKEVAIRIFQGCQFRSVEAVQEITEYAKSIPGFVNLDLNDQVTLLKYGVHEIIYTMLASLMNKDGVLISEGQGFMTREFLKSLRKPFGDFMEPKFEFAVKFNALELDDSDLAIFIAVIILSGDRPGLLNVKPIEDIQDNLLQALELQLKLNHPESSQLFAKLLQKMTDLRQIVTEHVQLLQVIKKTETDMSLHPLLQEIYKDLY

[7] = target: Sodium channel protein type 5 subunit alpha (Homo sapiens, UniProt Q14524); format: functional, cell-based
Sequence of Sodium channel protein type 5 subunit alpha (Q14524 whole entry): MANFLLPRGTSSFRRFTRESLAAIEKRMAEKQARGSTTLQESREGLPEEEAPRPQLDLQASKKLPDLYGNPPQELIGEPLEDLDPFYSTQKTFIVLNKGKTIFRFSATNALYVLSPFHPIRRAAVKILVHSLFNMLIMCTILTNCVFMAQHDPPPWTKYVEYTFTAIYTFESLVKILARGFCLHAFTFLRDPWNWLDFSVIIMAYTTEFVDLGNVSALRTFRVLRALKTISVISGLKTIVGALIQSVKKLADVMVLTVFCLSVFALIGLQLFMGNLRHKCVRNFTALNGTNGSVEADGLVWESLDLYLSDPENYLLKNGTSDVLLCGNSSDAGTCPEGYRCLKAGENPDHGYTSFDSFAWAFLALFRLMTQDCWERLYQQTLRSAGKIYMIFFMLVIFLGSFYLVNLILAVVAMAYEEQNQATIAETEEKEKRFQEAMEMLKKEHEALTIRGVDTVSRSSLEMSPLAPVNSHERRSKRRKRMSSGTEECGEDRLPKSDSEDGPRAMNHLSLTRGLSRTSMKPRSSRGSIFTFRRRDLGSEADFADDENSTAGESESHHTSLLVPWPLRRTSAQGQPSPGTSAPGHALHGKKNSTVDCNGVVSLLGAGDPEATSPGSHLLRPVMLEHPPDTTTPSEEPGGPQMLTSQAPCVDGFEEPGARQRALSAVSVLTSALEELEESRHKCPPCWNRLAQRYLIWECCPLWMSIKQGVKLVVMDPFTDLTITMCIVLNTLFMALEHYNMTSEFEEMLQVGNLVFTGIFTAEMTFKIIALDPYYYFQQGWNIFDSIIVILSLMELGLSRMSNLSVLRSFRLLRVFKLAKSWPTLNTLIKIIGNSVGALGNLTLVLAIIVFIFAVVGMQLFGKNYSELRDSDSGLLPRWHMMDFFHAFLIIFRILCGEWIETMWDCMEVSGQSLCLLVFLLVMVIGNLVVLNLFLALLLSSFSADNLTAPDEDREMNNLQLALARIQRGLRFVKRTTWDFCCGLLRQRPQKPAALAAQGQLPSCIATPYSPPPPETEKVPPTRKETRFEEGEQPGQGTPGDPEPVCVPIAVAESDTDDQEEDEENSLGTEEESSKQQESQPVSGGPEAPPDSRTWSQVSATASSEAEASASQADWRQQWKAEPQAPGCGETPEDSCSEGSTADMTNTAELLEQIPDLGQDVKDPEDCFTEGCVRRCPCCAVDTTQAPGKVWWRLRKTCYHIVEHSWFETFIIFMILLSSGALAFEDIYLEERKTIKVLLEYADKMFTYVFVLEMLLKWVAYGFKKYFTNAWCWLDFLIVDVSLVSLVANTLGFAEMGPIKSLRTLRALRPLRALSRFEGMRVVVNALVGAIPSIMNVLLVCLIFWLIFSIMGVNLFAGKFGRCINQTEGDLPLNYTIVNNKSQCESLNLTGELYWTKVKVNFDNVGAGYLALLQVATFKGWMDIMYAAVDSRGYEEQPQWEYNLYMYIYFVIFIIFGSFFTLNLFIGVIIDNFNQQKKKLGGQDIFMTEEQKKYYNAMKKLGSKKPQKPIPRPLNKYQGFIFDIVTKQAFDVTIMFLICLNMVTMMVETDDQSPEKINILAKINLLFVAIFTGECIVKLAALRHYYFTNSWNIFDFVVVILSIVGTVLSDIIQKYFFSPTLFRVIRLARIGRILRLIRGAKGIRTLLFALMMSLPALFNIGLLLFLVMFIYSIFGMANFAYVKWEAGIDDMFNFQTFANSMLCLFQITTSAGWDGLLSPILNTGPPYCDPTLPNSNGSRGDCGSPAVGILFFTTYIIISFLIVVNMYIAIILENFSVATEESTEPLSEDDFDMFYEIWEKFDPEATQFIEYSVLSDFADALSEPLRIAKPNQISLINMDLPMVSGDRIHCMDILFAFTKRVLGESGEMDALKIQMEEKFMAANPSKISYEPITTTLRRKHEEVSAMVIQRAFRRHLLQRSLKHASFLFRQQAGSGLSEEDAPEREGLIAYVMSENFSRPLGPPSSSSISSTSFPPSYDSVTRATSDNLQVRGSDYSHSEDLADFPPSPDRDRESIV
Further: assay procedure not described here.

Sequence of D(1A) dopamine receptor (P21728 whole entry): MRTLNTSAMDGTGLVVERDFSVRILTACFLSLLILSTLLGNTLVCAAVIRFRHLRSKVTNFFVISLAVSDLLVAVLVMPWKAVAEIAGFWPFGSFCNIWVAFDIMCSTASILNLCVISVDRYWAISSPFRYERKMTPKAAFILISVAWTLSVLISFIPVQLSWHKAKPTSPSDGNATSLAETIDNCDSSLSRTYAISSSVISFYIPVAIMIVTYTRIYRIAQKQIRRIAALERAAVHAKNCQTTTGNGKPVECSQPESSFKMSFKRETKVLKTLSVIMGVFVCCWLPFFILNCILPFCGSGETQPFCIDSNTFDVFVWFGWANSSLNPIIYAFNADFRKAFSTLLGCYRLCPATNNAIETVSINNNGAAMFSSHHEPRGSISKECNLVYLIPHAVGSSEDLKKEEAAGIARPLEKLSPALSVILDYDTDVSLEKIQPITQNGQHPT

## C[N+](C)(C)CCOC(N)=O [CARBAMOYLCHOLINE]
D(1A) dopamine receptor
  AC50: > 30 µM

## CN(C)CCCN1c2ccccc2Sc2ccccc21 [PROMAZINE]
[1]
  AC50: 1.44 µM
[2]
  AC50: > 10 µM

## COc1cc2c(cc1OC)[C@H]1C[C@@H](OC(=O)[C@@H](N)C(C)C)[C@H](CC(C)C)CN1CC2 [VALBENAZINE]
[3]
  AC50: 0.46 µM

## CC(=O)OC(C)C[N+](C)(C)C (stereo unspecified) [METHACHOLINE]
[4]
  AC50: 9.7 µM

## O=C(Nc1ccccc1)OCC(CN1CCCCC1)OC(=O)Nc1ccccc1 (stereo unspecified) [DIPERODON]
[1]
  AC50: > 10 µM
Thromboxane A2 receptor
  AC50: > 30 µM
[2]
  AC50: > 10 µM
[5]
  AC50: > 30 µM

## CC(=O)O[C@]1(C(C)=O)CC[C@H]2[C@@H]3C[C@H](C)C4=CC(=O)CC[C@]4(C)[C@H]3CC[C@@]21C [MEDROXYPROGESTERONE ACETATE]
[6]
  AC50: > 30 µM

## O=P(O)(O)C(O)(Cc1cccnc1)P(=O)(O)O [RISEDRONIC ACID]
[7]
  AC50: > 30 µM
